Measured values from ChEMBL document CHEMBL4507304, “Data for DCP probe TP-021” (2021).

What was measured:
[1] = target: RAF proto-oncogene serine/threonine-protein kinase (Homo sapiens) (UniProt P04049); settings: Compound concentration 1000.0 nM
[2] = target: Ephrin type-A receptor 1 (Homo sapiens) (UniProt P21709); settings: Compound concentration 1000.0 nM
[3] = target: Interferon-induced, double-stranded RNA-activated protein kinase (Homo sapiens) (UniProt P19525); settings: Compound concentration 1000.0 nM
[4] = target: Ephrin type-A receptor 2 (Homo sapiens) (UniProt P29317); settings: Compound concentration 1000.0 nM
[5] = target: Ephrin type-B receptor 3 (Homo sapiens) (UniProt P54753); settings: Compound concentration 1000.0 nM
[6] = target: Mitogen-activated protein kinase kinase kinase kinase 2 (Homo sapiens) (UniProt Q12851); settings: Compound concentration 1000.0 nM
[7] = target: Mitogen-activated protein kinase kinase kinase kinase 1 (Homo sapiens) (UniProt Q92918); settings: Compound concentration 1000.0 nM
[8] = target: Kappa-type opioid receptor (Homo sapiens) (UniProt P41145); settings: Compound concentration 10.0 uM
[9] = target: Atypical kinase COQ8B, mitochondrial (Homo sapiens) (UniProt Q96D53); settings: Compound concentration 1000.0 nM
[10] = target: Serine/threonine-protein kinase 38-like (Homo sapiens) (UniProt Q9Y2H1); settings: Compound concentration 1000.0 nM
[11] = target: 5-hydroxytryptamine receptor 2C (Homo sapiens) (UniProt P28335); settings: Compound concentration 10.0 uM
[12] = target: Serine/threonine-protein kinase BRSK2 (Homo sapiens) (UniProt Q8IWQ3); settings: Compound concentration 1000.0 nM
[13] = target: Serine/threonine-protein kinase Nek3 (Homo sapiens) (UniProt P51956); settings: Compound concentration 1000.0 nM
[14] = target: D(1B) dopamine receptor (Homo sapiens) (UniProt P21918); settings: Compound concentration 10.0 uM
[15] = target: Beta-3 adrenergic receptor (Homo sapiens) (UniProt P13945); settings: Compound concentration 10.0 uM
[16] = target: Phosphatidylinositol 4,5-bisphosphate 3-kinase catalytic subunit delta isoform (Homo sapiens) (UniProt O00329); settings: Compound concentration 1000.0 nM
[17] = target: D(2) dopamine receptor (Homo sapiens) (UniProt P14416); settings: Compound concentration 10.0 uM
[18] = target: Alpha-1A adrenergic receptor (Homo sapiens) (UniProt P35348); settings: Compound concentration 10.0 uM

Mitogen-activated protein kinase kinase kinase kinase 1 (Homo sapiens), sequence (Q92918 whole entry, looked up): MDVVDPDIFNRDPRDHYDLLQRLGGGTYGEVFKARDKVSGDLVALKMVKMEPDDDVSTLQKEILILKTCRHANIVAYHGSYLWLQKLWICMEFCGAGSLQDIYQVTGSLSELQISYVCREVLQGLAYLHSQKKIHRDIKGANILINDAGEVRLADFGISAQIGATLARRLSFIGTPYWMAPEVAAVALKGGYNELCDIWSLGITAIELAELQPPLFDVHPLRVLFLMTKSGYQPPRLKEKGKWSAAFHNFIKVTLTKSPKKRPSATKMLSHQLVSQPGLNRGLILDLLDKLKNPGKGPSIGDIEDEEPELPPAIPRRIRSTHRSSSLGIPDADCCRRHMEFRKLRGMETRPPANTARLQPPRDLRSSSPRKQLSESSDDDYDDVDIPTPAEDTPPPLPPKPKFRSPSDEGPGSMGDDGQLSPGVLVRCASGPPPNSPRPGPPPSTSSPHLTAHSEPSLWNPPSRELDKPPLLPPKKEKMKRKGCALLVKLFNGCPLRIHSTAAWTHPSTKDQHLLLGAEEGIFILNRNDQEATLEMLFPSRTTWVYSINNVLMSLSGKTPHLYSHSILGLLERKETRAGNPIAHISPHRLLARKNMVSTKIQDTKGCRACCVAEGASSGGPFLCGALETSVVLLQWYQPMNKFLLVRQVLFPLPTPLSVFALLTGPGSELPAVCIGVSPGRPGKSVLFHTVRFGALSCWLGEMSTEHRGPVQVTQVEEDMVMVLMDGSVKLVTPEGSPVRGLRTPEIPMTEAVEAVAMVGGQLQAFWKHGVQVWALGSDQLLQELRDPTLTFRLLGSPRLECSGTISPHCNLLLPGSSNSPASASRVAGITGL
Atypical kinase COQ8B, mitochondrial (Homo sapiens), sequence (Q96D53 whole entry): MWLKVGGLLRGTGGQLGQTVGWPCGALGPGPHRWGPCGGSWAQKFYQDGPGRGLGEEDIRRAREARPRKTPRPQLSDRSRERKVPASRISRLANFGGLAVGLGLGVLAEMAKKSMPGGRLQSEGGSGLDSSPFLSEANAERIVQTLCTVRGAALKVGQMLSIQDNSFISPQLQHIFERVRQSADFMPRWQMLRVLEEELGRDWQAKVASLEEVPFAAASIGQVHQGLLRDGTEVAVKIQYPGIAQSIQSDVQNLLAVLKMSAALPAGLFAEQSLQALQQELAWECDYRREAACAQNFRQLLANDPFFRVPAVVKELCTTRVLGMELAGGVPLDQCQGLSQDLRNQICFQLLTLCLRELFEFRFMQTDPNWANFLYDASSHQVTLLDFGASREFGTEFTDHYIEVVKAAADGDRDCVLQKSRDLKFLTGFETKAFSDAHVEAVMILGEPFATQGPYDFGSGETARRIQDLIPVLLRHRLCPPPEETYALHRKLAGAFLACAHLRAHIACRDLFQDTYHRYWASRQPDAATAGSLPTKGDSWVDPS
Ephrin type-A receptor 2 (Homo sapiens), sequence (P29317 whole entry): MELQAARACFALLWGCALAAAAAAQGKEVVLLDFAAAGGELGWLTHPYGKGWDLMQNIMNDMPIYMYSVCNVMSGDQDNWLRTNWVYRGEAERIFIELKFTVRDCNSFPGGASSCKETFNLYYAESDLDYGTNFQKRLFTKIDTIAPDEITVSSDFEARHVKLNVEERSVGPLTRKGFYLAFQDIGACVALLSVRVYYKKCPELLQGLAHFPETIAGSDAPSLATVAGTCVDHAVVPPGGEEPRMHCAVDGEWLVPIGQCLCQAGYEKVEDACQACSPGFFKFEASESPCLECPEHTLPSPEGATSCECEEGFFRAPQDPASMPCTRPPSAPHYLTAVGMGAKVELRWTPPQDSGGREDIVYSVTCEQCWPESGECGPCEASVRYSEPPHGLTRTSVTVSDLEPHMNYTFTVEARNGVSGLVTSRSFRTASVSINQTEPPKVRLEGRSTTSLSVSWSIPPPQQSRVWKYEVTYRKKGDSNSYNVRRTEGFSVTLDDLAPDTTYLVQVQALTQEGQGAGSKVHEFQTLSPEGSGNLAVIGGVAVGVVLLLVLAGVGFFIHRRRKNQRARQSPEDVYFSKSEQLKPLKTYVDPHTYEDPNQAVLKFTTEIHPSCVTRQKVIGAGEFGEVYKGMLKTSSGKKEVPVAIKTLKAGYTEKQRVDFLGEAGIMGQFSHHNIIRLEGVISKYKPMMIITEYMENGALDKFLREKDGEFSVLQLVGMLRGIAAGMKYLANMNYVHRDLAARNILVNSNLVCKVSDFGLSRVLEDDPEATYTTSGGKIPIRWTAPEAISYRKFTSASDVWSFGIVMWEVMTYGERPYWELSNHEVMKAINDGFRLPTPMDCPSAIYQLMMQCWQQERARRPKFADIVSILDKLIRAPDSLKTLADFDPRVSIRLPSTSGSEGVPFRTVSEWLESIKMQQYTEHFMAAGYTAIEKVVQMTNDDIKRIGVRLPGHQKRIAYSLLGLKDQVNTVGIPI
Ephrin type-A receptor 1 (Homo sapiens), sequence (P21709 whole entry): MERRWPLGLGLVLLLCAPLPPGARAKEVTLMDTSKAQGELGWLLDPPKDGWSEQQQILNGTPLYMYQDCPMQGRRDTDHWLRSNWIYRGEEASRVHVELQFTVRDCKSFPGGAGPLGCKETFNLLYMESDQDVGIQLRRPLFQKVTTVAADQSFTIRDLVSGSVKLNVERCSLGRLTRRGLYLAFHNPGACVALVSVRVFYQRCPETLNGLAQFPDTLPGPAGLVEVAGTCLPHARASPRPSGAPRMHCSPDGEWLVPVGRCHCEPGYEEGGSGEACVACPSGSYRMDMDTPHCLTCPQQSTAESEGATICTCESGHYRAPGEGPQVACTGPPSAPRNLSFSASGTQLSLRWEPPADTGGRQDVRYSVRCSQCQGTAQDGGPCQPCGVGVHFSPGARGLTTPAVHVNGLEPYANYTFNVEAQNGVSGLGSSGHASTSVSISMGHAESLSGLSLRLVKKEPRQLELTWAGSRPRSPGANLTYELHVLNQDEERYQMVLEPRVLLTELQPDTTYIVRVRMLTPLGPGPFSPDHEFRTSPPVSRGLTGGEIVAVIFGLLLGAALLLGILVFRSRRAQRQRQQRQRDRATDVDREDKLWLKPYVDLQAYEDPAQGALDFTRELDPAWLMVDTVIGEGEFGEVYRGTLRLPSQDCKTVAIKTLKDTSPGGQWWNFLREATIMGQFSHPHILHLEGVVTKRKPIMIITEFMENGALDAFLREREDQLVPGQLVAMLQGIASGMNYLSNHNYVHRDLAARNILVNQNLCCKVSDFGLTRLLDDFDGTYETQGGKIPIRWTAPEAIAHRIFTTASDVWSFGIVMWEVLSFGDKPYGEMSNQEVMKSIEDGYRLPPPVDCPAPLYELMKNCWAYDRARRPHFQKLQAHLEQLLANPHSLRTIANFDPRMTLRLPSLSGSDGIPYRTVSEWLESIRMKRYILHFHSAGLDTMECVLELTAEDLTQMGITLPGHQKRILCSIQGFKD
Mitogen-activated protein kinase kinase kinase kinase 2 (Homo sapiens), sequence (Q12851 whole entry): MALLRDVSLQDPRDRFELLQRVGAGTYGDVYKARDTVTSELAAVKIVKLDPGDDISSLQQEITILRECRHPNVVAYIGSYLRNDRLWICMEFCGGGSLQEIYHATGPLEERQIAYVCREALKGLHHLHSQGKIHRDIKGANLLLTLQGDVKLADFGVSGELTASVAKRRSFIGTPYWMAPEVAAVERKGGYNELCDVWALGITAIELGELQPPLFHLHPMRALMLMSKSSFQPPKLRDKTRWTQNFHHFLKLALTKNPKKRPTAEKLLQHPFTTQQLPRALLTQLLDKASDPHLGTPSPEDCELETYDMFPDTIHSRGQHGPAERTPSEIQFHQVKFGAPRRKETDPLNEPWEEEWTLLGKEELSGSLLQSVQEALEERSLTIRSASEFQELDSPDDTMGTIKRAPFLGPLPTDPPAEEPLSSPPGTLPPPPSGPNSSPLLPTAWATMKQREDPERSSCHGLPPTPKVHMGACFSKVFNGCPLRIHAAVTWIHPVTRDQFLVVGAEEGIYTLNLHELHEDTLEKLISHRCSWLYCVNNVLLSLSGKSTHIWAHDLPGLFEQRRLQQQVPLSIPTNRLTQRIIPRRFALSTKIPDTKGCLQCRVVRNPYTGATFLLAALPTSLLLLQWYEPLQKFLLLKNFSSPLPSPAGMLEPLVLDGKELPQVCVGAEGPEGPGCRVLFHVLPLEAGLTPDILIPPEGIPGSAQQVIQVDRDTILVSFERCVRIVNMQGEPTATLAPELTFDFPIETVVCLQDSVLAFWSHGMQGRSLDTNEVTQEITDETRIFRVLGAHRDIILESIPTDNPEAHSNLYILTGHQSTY
Serine/threonine-protein kinase BRSK2 (Homo sapiens), sequence (Q8IWQ3 whole entry): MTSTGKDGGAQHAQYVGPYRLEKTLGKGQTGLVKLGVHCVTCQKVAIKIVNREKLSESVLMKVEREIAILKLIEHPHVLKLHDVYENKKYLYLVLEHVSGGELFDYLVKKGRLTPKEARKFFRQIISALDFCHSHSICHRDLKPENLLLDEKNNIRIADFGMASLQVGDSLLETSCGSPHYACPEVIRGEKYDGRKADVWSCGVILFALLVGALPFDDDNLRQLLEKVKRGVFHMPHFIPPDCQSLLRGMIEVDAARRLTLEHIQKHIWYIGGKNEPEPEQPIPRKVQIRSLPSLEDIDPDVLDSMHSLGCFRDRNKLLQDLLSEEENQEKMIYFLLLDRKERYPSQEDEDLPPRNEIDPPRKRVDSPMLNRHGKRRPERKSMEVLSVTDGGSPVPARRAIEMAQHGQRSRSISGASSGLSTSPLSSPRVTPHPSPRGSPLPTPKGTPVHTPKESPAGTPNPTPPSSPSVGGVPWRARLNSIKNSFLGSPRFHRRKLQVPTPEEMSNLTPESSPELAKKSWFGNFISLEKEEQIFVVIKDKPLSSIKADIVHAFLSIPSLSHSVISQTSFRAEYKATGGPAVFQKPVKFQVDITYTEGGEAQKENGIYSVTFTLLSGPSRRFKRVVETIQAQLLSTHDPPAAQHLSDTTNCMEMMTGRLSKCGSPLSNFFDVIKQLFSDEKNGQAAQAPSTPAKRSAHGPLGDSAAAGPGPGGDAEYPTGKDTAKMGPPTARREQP

N#Cc1ccc(Nc2ccc3[nH]c(=O)[nH]c3c2)c(Cl)c1
inactive: residual activity [1] 68% | residual activity [2] 91% | residual activity [3] 57% | residual activity [4] 84% | residual activity [5] 100% | residual activity [6] 100% | residual activity [7] 100% | inhibition [8] 8.98% | residual activity [9] 100% | residual activity [10] 53% | inhibition [11] -9.96% | residual activity [12] 100%

O=C1CCc2cc(Nc3cc(OC4CCOCC4)c([N+](=O)[O-])cc3Cl)ccc2N1
inactive: residual activity [1] 98% | residual activity [2] 81% | residual activity [4] 75% | residual activity [5] 88% | residual activity [6] 95% | residual activity [7] 100% | residual activity [13] 100% | inhibition [14] 13% | inhibition [8] 12.4% | residual activity [9] 100% | inhibition [15] 7.73% | residual activity [16] 94% | inhibition [17] 2.86% | inhibition [18] -8.76% | residual activity [12] 100%
